Laboratory results published in paper PMC9463526 (Journal of Pharmaceutical Analysis, 2022).
Where two headings read alike, the source gives them in different places.

Legend:
[1] = Equilibrium dialysis, fraction unbound in plasma; format: in vitro ADME, human; conditions: for fraction unbound at 16 h: pH 7.4, 16 h equilibrium dialysis
Protocol: (§1) Equilibrium dialysis was employed to measure the fraction unbound of analytes in plasma, brain, and brain tumor tissue homogenates using 96-well DispoEquilibrium Dialyzer plates with a 10 kDa cut-off regenerated cellulose membrane. Dialysis was performed using 180 μL of human plasma or tissue homogenate against an equal volume of PBS (pH 7.4) in a dual-plate rotator (Harvard Apparatus, Holliston, MA, USA). Equilibrium time was initially optimized by analyzing samples after 2, 4, 6, 8, 16, and 24 h of dialysis at concentrations of 20 and 200 nM in human plasma and brain homogenate. The dialysates were collected and processed as described in Sections 2.3.2 and 2.3.3. The recovery of analytes was calculated as the ratio of analyte concentration after dialysis (sum of concentrations found in PBS and matrix fractions) to the total concentration to ensure the reliability and reproducibility of the assay. The experiments were repeated at least three times, and each sample in triplicate and average fraction unbound values were determined.
(§2) The fraction unbound in plasma (fu, plasma) and tissue homogenate (fu, hom) was evaluated as the analyte concentration ratio of post-dialysis PBS (cu) to post-dialysis plasma (cp, Eq. (1)) or homogenate (chom, Eq. (2)).(1) fu,plasma =cu/cp (2) fu,hom =cu/chom
(§3) Unbound drug levels in the actual plasma and brain tumor tissue were measured using dialysis for 16 h to reach equilibrium. The mean of fraction unbound values determined in five patient samples was calculated.

[2] = Equilibrium dialysis, fraction unbound in brain homogenate; format: in vitro ADME, human; conditions: for fraction unbound at 16 h: pH 7.4, human brain homogenate spiked at 20 and 200 nM, 16 h equilibrium dialysis, read-out: Fraction unbound (fu), Brain; for Plasma protein binding compared to binding to brain tissue components (ratio): spiked pooled human plasma vs human brain homogenate
Protocol: as §1, §2
(§4) The fraction unbound in the actual tissue (fu, tissue) was obtained by incorporating the unbound fraction in the tissue homogenate (fu, hom) and the dilution factor (Df) into Eq. (3).(3) fu,tissue = fu,hom/[Df - (Df - 1)fu,hom]

[3] = Equilibrium dialysis, fraction unbound in patient brain tumor tissue; format: in vitro ADME; conditions: human, five patients, 16 h equilibrium dialysis
Protocol: as §1, §2, §4, §3
(§5) The validated bioanalytical method was employed to investigate analytes pharmacokinetics in the plasma, brain tumor, and CSF in GBM patients (ClinicalTrials.gov identifier: NCT04391595). The protocol was reviewed and approved by the Institutional Review Board of the Barrow Neurological Institute, St. Joseph's Hospital and Medical Center (Phoenix, AZ, USA). All patients enrolled in the trial provided written informed consent. […] Blood, CSF, and GBM tissue (including gadolinium-contrast enhancing and non-enhancing regions) samples were obtained intra-operatively from each patient on the […] on the planned operation day. Blood was centrifuged at 4 °C and 3,000 r/min for 10 min; plasma was subsequently collected. Brain tumors were resected 7–9 h after the last dose was administered. Once resected, the tissue samples were rinsed with PBS, paper dried, and freshly frozen in liquid nitrogen. The samples were then stored at −80 °C in a freezer for later analysis.

[4] = Levels in intraoperatively collected CSF of GBM patients; format: in vivo; conditions: human, po, five GBM patients, oral LY3214996 200 mg once daily and abemaciclib 150 mg twice daily for 5 days, intraoperative CSF
Protocol: Blank brain and clinical brain tumor tissue homogenates were prepared at 1:9 (m/V) ratio with PBS. The samples were homogenized at a speed of 6.00 m/s for 40 s for three cycles using a Bead Ruptor Elite homogenizer (Omni International, Kennesaw, GA, USA). Plasma was used as a surrogate matrix when preparing calibration curves for brain and brain tumor homogenates and CSF as well as for the PBS fraction after sample dialysis. To minimize matrix differences, all plasma samples were spiked with PBS, while all non-plasma samples were spiked with plasma. Extraction of the analyte and IS was facilitated by protein precipitation using methanol-containing IS precipitation solution. Samples (70 μL) spiked with PBS or plasma were precipitated using 400 μL of IS precipitation solution. After centrifugation at 12,000 r/min for 10 min at 4 °C, the supernatant was transferred for LC-MS/MS analysis.
as §5

[5] = Analyte stability in human plasma; format: physicochemical; conditions: for Freeze-thaw stability, Accuracy / Freeze-thaw stability, Mean concentration / Freeze-thaw stability, Difference: 3 cycles; for Freeze-thaw stability, Difference / Benchtop stability, Difference / Processed sample stability, Difference / Autosampler stability (5 °C), Difference / Long-term stability (−20 °C), Difference: vs freshly processed QC; for Benchtop stability, Accuracy / Benchtop stability, Mean concentration / Benchtop stability, Difference: 19 h; for Processed sample stability, Accuracy / Processed sample stability, Mean concentration / Processed sample stability, Difference: 23 h; for Autosampler stability (5 °C), Accuracy / Autosampler stability (5 °C), Mean concentration / Autosampler stability (5 °C), Difference: 112 h; for Long-term stability (−20 °C), Accuracy / Long-term stability (−20 °C), Mean concentration / Long-term stability (−20 °C), Difference: 27 days
Protocol: The stability of the analytes was studied under various storage and processing conditions. […] Short- and long-term stability studies of all analytes were conducted in human blank plasma and brain homogenate under several storage conditions. Analyte stability in biological matrices was analyzed using freshly prepared calibration standards and QC samples. The percentage difference between the stability and freshly processed QC was also assessed. Re-injection reproducibility was evaluated within the sample stability period in the autosampler. Analytes were considered stable if the accuracy at each level was ±15.0% of the nominal value. Additionally, the difference from corresponding comparison QC samples must be within ±15.0%.

[6] = human, plasma of five GBM patients, read-out: Fraction unbound (fu), Plasma (patients)
[7] = pooled human plasma spiked at 20 and 200 nM, read-out: Fraction unbound (fu), Plasma (pooled)
[8] = pH 7.4, gadolinium contrast enhancing GBM region, read-out: Fraction unbound (fu), GBM (E)
[9] = pH 7.4, gadolinium contrast non-enhancing GBM region, read-out: Fraction unbound (fu), GBM (NE)

fraction unbound at 16 h [1, 6]	fraction unbound at 16 h [1, 7]	fraction unbound at 16 h [2]	fraction unbound at 16 h [3, 8]	fraction unbound at 16 h [3, 9]	concentration at 6 day (intra-operative) ([4]; read-out: Level in CSF (range)) [nM]	concentration at 6 day (intra-operative) ([4]; read-out: Median level in CSF) [nM]	Freeze-thaw stability, Accuracy ([5]; HQC 400.0 nM) [%]	Freeze-thaw stability, Mean concentration ([5]; HQC 400.0 nM) [nM]	Freeze-thaw stability, Difference ([5]; HQC 400.0 nM) [%]	Freeze-thaw stability, Accuracy ([5]; LQC 0.6 nM) [%]	Freeze-thaw stability, Mean concentration ([5]; LQC 0.6 nM) [nM]	Freeze-thaw stability, Difference ([5]; LQC 0.6 nM) [%]	Benchtop stability, Accuracy ([5]; HQC 400.0 nM) [%]	Benchtop stability, Mean concentration ([5]; HQC 400.0 nM) [nM]	Benchtop stability, Difference ([5]; HQC 400.0 nM) [%]	Benchtop stability, Accuracy ([5]; LQC 0.6 nM) [%]	Benchtop stability, Mean concentration ([5]; LQC 0.6 nM) [nM]	Benchtop stability, Difference ([5]; LQC 0.6 nM) [%]	Processed sample stability, Accuracy ([5]; HQC 400.0 nM) [%]	Compound	other results
0.406	0.372	0.065	0.109	0.06	49.7 to 118	95.5	100.6	402.5	3.2	101.0	0.606	5.3	102.3	409.3	2.8	97.7	0.586	3.2	97.7	Cn1nccc1Nc1nccc(-c2cc3c(s2)C(C)(C)N(CCN2CCOCC2)C3=O)n1 [LY3214996]	Plasma protein binding (in words) ([1]; pooled human plasma): modest plasma protein binding; Plasma protein binding compared to binding to brain tissue components (ratio) [2]: at least 5.5 fold; Processed sample stability, Mean concentration ([5]; HQC 400.0 nM): 390.7 nM; Processed sample stability, Difference ([5]; HQC 400.0 nM): 2.2%; Processed sample stability, Accuracy ([5]; LQC 0.6 nM): 91.1%; Processed sample stability, Mean concentration ([5]; LQC 0.6 nM): 0.547 nM; Processed sample stability, Difference ([5]; LQC 0.6 nM): −3.4%; Autosampler stability (5 °C), Accuracy ([5]; HQC 400.0 nM): 95.4%; Autosampler stability (5 °C), Mean concentration ([5]; HQC 400.0 nM): 381.8 nM; Autosampler stability (5 °C), Difference ([5]; HQC 400.0 nM): 1.5%; Autosampler stability (5 °C), Accuracy ([5]; LQC 0.6 nM): 92.5%; Autosampler stability (5 °C), Mean concentration ([5]; LQC 0.6 nM): 0.555 nM; Autosampler stability (5 °C), Difference ([5]; LQC 0.6 nM): 3.1%; Long-term stability (−20 °C), Accuracy ([5]; HQC 400.0 nM): 104.5%; Long-term stability (−20 °C), Mean concentration ([5]; HQC 400.0 nM): 418.1 nM; Long-term stability (−20 °C), Difference ([5]; HQC 400.0 nM): 3.4%; Long-term stability (−20 °C), Accuracy ([5]; LQC 0.6 nM): 101.5%; Long-term stability (−20 °C), Mean concentration ([5]; LQC 0.6 nM): 0.609 nM; Long-term stability (−20 °C), Difference ([5]; LQC 0.6 nM): −2.2%
0.045	0.052	0.008	0.009	0.006	1.8 to 30.4	11.7	106	424.2	5.8	105.3	0.632	5.8	103.8	415.0	1.1	92.2	0.553	−1.7	100.6	Cc1nc2c(F)cc(-c3nc(Nc4ccc(CN5CCNCC5)cn4)ncc3F)cc2n1C(C)C [M2]	Plasma protein binding compared to binding to brain tissue components (ratio) [2]: at least 6.5 fold; Processed sample stability, Mean concentration ([5]; HQC 400.0 nM): 402.2 nM; Processed sample stability, Difference ([5]; HQC 400.0 nM): 0.7%; Processed sample stability, Accuracy ([5]; LQC 0.6 nM): 95.5%; Processed sample stability, Mean concentration ([5]; LQC 0.6 nM): 0.573 nM; Processed sample stability, Difference ([5]; LQC 0.6 nM): 3.6%; Autosampler stability (5 °C), Accuracy ([5]; HQC 400.0 nM): 97.7%; Autosampler stability (5 °C), Mean concentration ([5]; HQC 400.0 nM): 390.9 nM; Autosampler stability (5 °C), Difference ([5]; HQC 400.0 nM): −0.2%; Autosampler stability (5 °C), Accuracy ([5]; LQC 0.6 nM): 96.8%; Autosampler stability (5 °C), Mean concentration ([5]; LQC 0.6 nM): 0.581 nM; Autosampler stability (5 °C), Difference ([5]; LQC 0.6 nM): 4.8%; Long-term stability (−20 °C), Accuracy ([5]; HQC 400.0 nM): 109.2%; Long-term stability (−20 °C), Mean concentration ([5]; HQC 400.0 nM): 437.0 nM; Long-term stability (−20 °C), Difference ([5]; HQC 400.0 nM): 5.6%; Long-term stability (−20 °C), Accuracy ([5]; LQC 0.6 nM): 99.9%; Long-term stability (−20 °C), Mean concentration ([5]; LQC 0.6 nM): 0.6 nM; Long-term stability (−20 °C), Difference ([5]; LQC 0.6 nM): −3.1%
0.023	0.024	0.021	0.022	0.017	3.1 to 58.1	12.7	99.6	398.6	0.3	97.2	0.583	2.9	102.2	408.9	2.8	99.9	0.599	3.5	101.4	CCN1CCN(Cc2ccc(Nc3ncc(F)c(-c4cc(F)c5nc(CO)n(C(C)C)c5c4)n3)nc2)CC1 [M20]	Processed sample stability, Mean concentration ([5]; HQC 400.0 nM): 405.7 nM; Processed sample stability, Difference ([5]; HQC 400.0 nM): 2.7%; Processed sample stability, Accuracy ([5]; LQC 0.6 nM): 88.9%; Processed sample stability, Mean concentration ([5]; LQC 0.6 nM): 0.534 nM; Processed sample stability, Difference ([5]; LQC 0.6 nM): −2%; Autosampler stability (5 °C), Accuracy ([5]; HQC 400.0 nM): 95.6%; Autosampler stability (5 °C), Mean concentration ([5]; HQC 400.0 nM): 382.5 nM; Autosampler stability (5 °C), Difference ([5]; HQC 400.0 nM): −2%; Autosampler stability (5 °C), Accuracy ([5]; LQC 0.6 nM): 95.1%; Autosampler stability (5 °C), Mean concentration ([5]; LQC 0.6 nM): 0.57 nM; Autosampler stability (5 °C), Difference ([5]; LQC 0.6 nM): 1.3%; Long-term stability (−20 °C), Accuracy ([5]; HQC 400.0 nM): 104.7%; Long-term stability (−20 °C), Mean concentration ([5]; HQC 400.0 nM): 418.8 nM; Long-term stability (−20 °C), Difference ([5]; HQC 400.0 nM): 2.7%; Long-term stability (−20 °C), Accuracy ([5]; LQC 0.6 nM): 101.7%; Long-term stability (−20 °C), Mean concentration ([5]; LQC 0.6 nM): 0.61 nM; Long-term stability (−20 °C), Difference ([5]; LQC 0.6 nM): −4%
